Reference: paper PMC7554340, “A Novel Dual-Targeted α-Helical Peptide With Potent Antifungal Activity Against Fluconazole-Resistant Candida albicans Clinical Isolates” (Frontiers in Microbiology, 2020)
Converted amounts (≈) assume the structure as drawn. Like-named read-outs stand apart in the source and are kept apart here. No end group written: not given here.

Legend:
C. albicans cgmcc 2.2086 [1] = test: Antifungal activity assay (broth microdilution, MIC/MFC); assay type: cell-based, Candida albicans
[2] = test system: C. tropicalis cgmcc 2.1975; test: as above; assay type: cell-based, Candida tropicalis
[3] = test system: C. parapsilosis cgmcc 2.3989; test: as above; assay type: cell-based, Candida parapsilosis
C. albicans cgmcc 2.2086 [4] = assay type: cell-based, Candida albicans
C. albicans 56452 [5] = test: microbe, parasite or virus in culture; conditions: Candida albicans, 56452, 48 h
C. albicans 56214 [6] = test: microbe, parasite or virus in culture; conditions: Candida albicans, 56214, 48 h
C. albicans 14936 [7] = test: microbe, parasite or virus in culture; conditions: Candida albicans, 14936, 48 h
C. albicans 17546 [8] = test: microbe, parasite or virus in culture; conditions: Candida albicans, 17546, 48 h
C. albicans 58288 [9] = test: microbe, parasite or virus in culture; conditions: Candida albicans, 58288, 48 h
C. albicans sp3902 [10] = test: microbe, parasite or virus in culture; conditions: Candida albicans, SP3902, 48 h
C. albicans sp3903 [11] = test: microbe, parasite or virus in culture; conditions: Candida albicans, SP3903, 48 h
C. albicans sp3931 [12] = test: microbe, parasite or virus in culture; conditions: Candida albicans, SP3931, 48 h
C. albicans sp3876 [13] = test: microbe, parasite or virus in culture; conditions: Candida albicans, SP3876, 48 h
C. albicans 56452 [14] = conditions: 56452, 48 h; for MIC: pH 7
C. albicans 56214 [15] = conditions: 56214, 48 h; for MIC: pH 7
C. albicans 14936 [16] = conditions: 14936, 48 h; for MIC: pH 7
C. albicans 17546 [17] = conditions: 17546, 48 h; for MIC: pH 7
C. albicans 58288 [18] = conditions: 58288, 48 h; for MIC: pH 7
C. albicans sp3902 [19] = conditions: sp3902, 48 h; for MIC: pH 7
C. albicans sp3903 [20] = conditions: sp3903, 48 h; for MIC: pH 7
C. albicans sp3931 [21] = conditions: sp3931, 48 h; for MIC: pH 7
C. albicans sp3876 [22] = conditions: sp3876, 48 h; for MIC: pH 7
Candida strains = conditions: 48 h
human erythrocytes [23] = test: Hemolysis assay; conditions: minimal hemolytic concentration inducing 10% hemolysis of human erythrocytes; 1 h, 37°C, hemoglobin at 570 nm; probit regression; three independent experiments
IPEC-J2 and PMEC cells [24] = test: Cytotoxicity MTT assay, statements for both cell lines; conditions: 24 h, 1-64 μM
human erythrocytes [25] = test system: human erythrocytes
IPEC-J2 and PMEC cells [26] = test system: IPEC-J2 and PMEC cells
[27] = 50 μl of MIC wells plated on YPD agar, 28°C, 48 h, lowest concentration that completely killed fungal cells, consensus of at least three independent experiments

Molecule: OC(Cn1cncn1)(Cn1cncn1)c1ccc(F)cc1F [FLU, fluconazole]
- MFC (C. albicans cgmcc 2.2086 [1]; Candida albicans, CGMCC2, 50 μl of MIC wells plated on YPD agar, 28°C, 48 h, lowest concentration that completely killed fungal cells, consensus of at least three independent experiments): 4 µM (≈ 1.23 µg/mL)
- MIC (C. albicans cgmcc 2.2086 [1]; Candida albicans, CGMCC2, broth microdilution, RPMI-MOPS pH 7.0, 28°C, 48 h, lowest concentration inhibiting 99% of growth (A492)): 2 µM (≈ 0.613 µg/mL)
- MFC ([2]; Candida tropicalis, CGMCC2, 50 μl of MIC wells plated on YPD agar, 28°C, 48 h, lowest concentration that completely killed fungal cells, consensus of at least three independent experiments): 32 µM (≈ 9.8 µg/mL)
- MIC ([2]; Candida tropicalis, CGMCC2, broth microdilution, RPMI-MOPS pH 7.0, 28°C, 48 h, lowest concentration inhibiting 99% of growth (A492)): 4 µM (≈ 1.23 µg/mL)
- MFC ([3]; Lodderomyces parapsilosis, CGMCC2, 50 μl of MIC wells plated on YPD agar, 28°C, 48 h, lowest concentration that completely killed fungal cells, consensus of at least three independent experiments): 8 µM (≈ 2.45 µg/mL)
- MIC ([3]; Lodderomyces parapsilosis, CGMCC2, broth microdilution, RPMI-MOPS pH 7.0, 28°C, 48 h, lowest concentration inhibiting 99% of growth (A492)): 4 µM (≈ 1.23 µg/mL)
- change of MIC after serial passage (C. albicans cgmcc 2.2086 [4]): eightfold
- MFC (C. albicans 56452 [5]): > 256 µM
- MIC (C. albicans 56452 [5]; pH 7): > 256 µM
- MFC (C. albicans 56214 [6]): > 256 µM
- MIC (C. albicans 56214 [6]; pH 7): > 256 µM
- MFC (C. albicans 14936 [7]): > 256 µM
- MIC (C. albicans 14936 [7]; pH 7): 32 µM (≈ 9.8 µg/mL)
- MFC (C. albicans 17546 [8]): > 256 µM
- MIC (C. albicans 17546 [8]; pH 7): > 256 µM
- MFC (C. albicans 58288 [9]): > 256 µM
- MIC (C. albicans 58288 [9]; pH 7): 8 µM (≈ 2.45 µg/mL)
- MFC (C. albicans sp3902 [10]): > 256 µM
- MIC (C. albicans sp3902 [10]; pH 7): 16 µM (≈ 4.9 µg/mL)
- MFC (C. albicans sp3903 [11]): 64 µM (≈ 19.6 µg/mL)
- MIC (C. albicans sp3903 [11]; pH 7): 16 µM (≈ 4.9 µg/mL)
- MFC (C. albicans sp3931 [12]): 64 µM (≈ 19.6 µg/mL)
- MIC (C. albicans sp3931 [12]; pH 7): 1 µM (≈ 0.306 µg/mL)
- MFC (C. albicans sp3876 [13]): > 256 µM
- MIC (C. albicans sp3876 [13]; pH 7): > 256 µM

Molecule: KIGKVLLVKGIKKIGKVL-NH2 [KV3]
- MFC (C. albicans cgmcc 2.2086 [1]; cgmcc 2.2086, 48 h): 32 µM
- MIC (C. albicans cgmcc 2.2086 [1]; cgmcc 2.2086, 48 h, pH 7): 32 µM
- MFC ([2]; cgmcc 2.1975, 48 h): 16 µM
- MIC ([2]; cgmcc 2.1975, 48 h, pH 7): 16 µM
- MFC ([3]; cgmcc 2.3989, 48 h): 32 µM
- MIC ([3]; cgmcc 2.3989, 48 h, pH 7): 32 µM
- MFC (C. albicans 56452 [14]): 64 µM
- MIC (C. albicans 56452 [14]): 32 µM
- MFC (C. albicans 56214 [15]): 32 µM
- MIC (C. albicans 56214 [15]): 32 µM
- MFC (C. albicans 14936 [16]): >64 µM
- MIC (C. albicans 14936 [16]): >64 µM
- MFC (C. albicans 17546 [17]): 64 µM
- MIC (C. albicans 17546 [17]): 64 µM
- MFC (C. albicans 58288 [18]): 64 µM
- MIC (C. albicans 58288 [18]): 64 µM
- MFC (C. albicans sp3902 [19]): 64 µM
- MIC (C. albicans sp3902 [19]): 64 µM
- MFC (C. albicans sp3903 [20]): 64 µM
- MIC (C. albicans sp3903 [20]): 64 µM
- MFC (C. albicans sp3931 [21]): 64 µM
- MIC (C. albicans sp3931 [21]): 64 µM
- MFC (C. albicans sp3876 [22]): 32 µM
- MIC (C. albicans sp3876 [22]): 16 µM
- MIC values on Candida strains (range) (Candida strains): 16 to 64 µM
- IC50 (IPEC-J2 cells; IPEC-J2 cells, MTT, 24 h treatment, 1-64 μM, probit regression): > 64 µM
- IC50 (PMEC cells; PMEC cells, MTT, 24 h treatment, 1-64 μM, probit regression): > 64 µM
- HC10 (human erythrocytes [23]): >64 µM
- cytotoxic effects (in words) (IPEC-J2 and PMEC cells [24]): negligible cytotoxic effects

Molecule: RIGRFLLFRGIRRIGRFL-NH2 [RF3]
- MFC (C. albicans cgmcc 2.2086 [1]; [27]): 8 µM
- MIC (C. albicans cgmcc 2.2086 [1]; cgmcc 2.2086, 48 h, pH 7): 8 µM
- MFC [2, 27]: 8 µM
- MIC ([2]; cgmcc 2.1975, 48 h, pH 7): 8 µM
- MFC [3, 27]: 16 µM
- MIC ([3]; cgmcc 2.3989, 48 h, pH 7): 16 µM
- MFC (C. albicans 56452 [14]): 8 µM
- MIC (C. albicans 56452 [14]): 8 µM
- MFC (C. albicans 56214 [15]): 8 µM
- MIC (C. albicans 56214 [15]): 4 µM
- MFC (C. albicans 14936 [16]): 8 µM
- MIC (C. albicans 14936 [16]): 8 µM
- MFC (C. albicans 17546 [17]): 16 µM
- MIC (C. albicans 17546 [17]): 8 µM
- MFC (C. albicans 58288 [18]): 8 µM
- MIC (C. albicans 58288 [18]): 8 µM
- MFC (C. albicans sp3902 [19]): 8 µM
- MIC (C. albicans sp3902 [19]): 8 µM
- MFC (C. albicans sp3903 [20]): 8 µM
- MIC (C. albicans sp3903 [20]): 8 µM
- MFC (C. albicans sp3931 [21]): 8 µM
- MIC (C. albicans sp3931 [21]): 8 µM
- MFC (C. albicans sp3876 [22]): 4 µM
- MIC (C. albicans sp3876 [22]): 4 µM
- HC10 (human erythrocytes [25]): > 64 µM
- IC50 (IPEC-J2 cells; 24 h): 59.8 µM
- IC50 (PMEC cells; 24 h): 54 µM
- cytotoxicity at 64 μM (in words) (IPEC-J2 and PMEC cells [26]): sharp rise in cytotoxicity
